Data as given in US10501449B2 (priority 2018, dated 2019).

These compounds were tested against hROMK (human Kir1.1) (Homo sapiens (Human), UniProt P48048) (assay: cell-based). Details: CHO T-Rex hROMK stable cell line; thallium flux; 10-point concentration response curve; read-out: Human ROMK Th Flux IC50.
Sequence of hROMK (human Kir1.1) (P48048 whole entry): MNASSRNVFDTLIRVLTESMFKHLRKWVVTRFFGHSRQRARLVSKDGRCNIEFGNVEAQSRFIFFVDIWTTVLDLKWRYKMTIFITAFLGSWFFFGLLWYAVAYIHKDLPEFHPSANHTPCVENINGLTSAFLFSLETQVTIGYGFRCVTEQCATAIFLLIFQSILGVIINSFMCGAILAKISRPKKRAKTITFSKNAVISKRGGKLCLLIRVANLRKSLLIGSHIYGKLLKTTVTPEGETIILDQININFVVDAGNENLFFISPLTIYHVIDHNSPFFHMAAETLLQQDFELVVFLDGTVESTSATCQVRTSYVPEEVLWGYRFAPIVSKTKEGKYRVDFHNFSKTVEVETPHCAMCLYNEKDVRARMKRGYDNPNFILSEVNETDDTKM
Experimental: Solutions and reagents: Thallium flux assay was performed using FluxOR kit (F10017, Life Technologies). Loading buffer, assay buffer and stimulus buffer were prepared using kit components. HBSS (Hank's balanced salt solution, Cat#14025-092) was purchased separately from Life Technologies.
To prepare 10 ml of loading buffer: 10 μl of FluxOR dye (reconstituted in DMSO) was first added to 100 μl of powerload concentrate and this mix along with 100 μl of Probenicid (100×) was then added to 9.79 ml of HBSS. Assay buffer (10 ml) was prepared by addition of 2 ml of FluxOR chloride free buffer (5×), 100 μl of Probenicid (100×), and 0.2 ml of Ouabain (13.77 mM) to 7.7 ml of deionized water. Stimulus buffer was composed of 15 mM Tl2SO4, 0.75 mM K2SO4 in FluxOR chloride free buffer (diluted to 1× using deionized water). The final concentration of Tl2SO4 and K2SO4 in the assay plate was 3 mM and 0.15 mM, respectively.
Plating and induction of cells: The CHO T-Rex hROMK (human Kir1.1) stable cell line was maintained in Ham's F12 media supplemented with 10% FBS, 1% Penicillin-Streptomycin, 500 μg/ml Zeocin and 10 μg/ml Blasticidin at 37° C. in a 5% CO2 incubator. One day before the experiment, the cells were dissociated by incubation with Versene solution (15040-066, Life Technologies) for 10 minutes at 37° C. followed by addition of growth media. The cell suspension was centrifuged at 1200 rpm for 5 min. After discarding the supernatant, the cells were resuspended in fresh growth media and cell concentration was determined using a hemocytometer. Next, 0.5 μg/ml of Doxycycline was added to the cell suspension to induce hROMK channel expression and 50 μl (10,000 cells/well) of cell suspension was added to each well of a poly-D lysine coated 384 well black, optically clear bottom plate (6007718, Perkin Elmer). The assay plate was kept at 37° C. in a 5% CO2 incubator.
Assay protocol: On the day of experiment, media was removed and loading buffer was added (30 μl/well) to the assay plate. The cells were incubated in the loading buffer for 30 minutes at 37° C. The loading buffer was then replaced by assay buffer (30 μl/well) followed by addition of test compounds or controls. The cells were incubated with compounds for 30 minutes and the plate was then mounted on FlexStation (Molecular Devices) for fluorescence read out with excitation and emission wavelengths at 488 and 525 nm, respectively. Each well was read for 90 sec at 2 sec interval and the stimulus buffer was added after 20 seconds of baseline recording. The final DMSO concentration was either 0.5 or 1% in the assay plate. Positive and negative controls were defined by addition of DMSO or 3 μM of a standard ROMK inhibitor, respectively, to the wells instead of a test compound.
A 10-point concentration response curve was used to estimate the IC50 value of test compounds.

Row | SMILES | IC50 [nM]
1 | Cc1cc(-n2cc(CN3C[C@@H](c4ccc5c(c4C)COC5=O)OCC3=O)cn2)ncc1C#N [Example 10-I, (R)-4-methyl-6-(4-((2-(4-methyl-1-oxo-1,3-dihydroisobenzofuran-5-yl)-5-oxomorpholino)methyl)-1H-pyrazol-1-yl)nicotinonitrile] | 620
2 | Cc1c(C#N)ccnc1-n1cc(CN2C[C@@H](c3ccc4c(c3C)COC4=O)N[C@@H](C)C2)cn1 [Example 202-I, 3-methyl-2-(4-(((3S,5R)-3-methyl-5-(4-methyl-1-oxo-1,3-dihdyroisobenzofuran-5-yl)piperazin-1-yl)methyl)-1H-pyrazol-1-yl)isonicotinonitrile] | 140
3 | Cc1c([C@@H]2CN(Cc3cnn(-c4cc(C5CC5)c(C#N)cn4)c3)CCO2)ccc2c1COC2=O [Example 8-I, (R)-4-cyclopropyl-6-(4-((2-(4-methyl-1-oxo-1,3-dihydroisobenzofuran-5-yl)morpholino)methyl)-1H-pyrazol-1-yl)nicotinonitrile] | 280
4 | Cc1ncc(-n2cc(CN3CCO[C@H](c4ccc5c(c4C)COC5=O)C3)cn2)s1 [Example 7-I, (R)-4-methyl-5-(4-((1-(2-methylthiazol-5-yl)-1H-pyrazol-4-yl)methyl)morpholin-2-yl) isobenzofuran-1(3H)-one] | 1000
5 | Cc1c([C@@H]2CN(Cc3cnn(-c4cncc(C#N)c4)c3)CCO2)ccc2c1COC2=O [Example 42-I, (R)-5-(4-((2-(4-methyl-1-oxo-1,3-dihydroiso-benzofuran-5-yl)morpholino)methyl)-1H-pyrazol-1-yl)nicotinonitrile] | 490
6 | COC(=O)N1CCN(Cc2cnn(-c3cc(C)c(C#N)cn3)c2)C[C@H]1c1ccc2c(c1C)COC2=O [Example 24-I, Methyl (R)-4-((1-(5-cyano-4-methylpyridin-2-yl)-1H-pyrazol-4-yl)methyl)-2-(4-methyl-1-oxo-1,3-dihydroisobenzofuran-5-yl)piperazine-1-carboxylate] | 500
7 | Cc1cc(-c2cnc(CN3CCN[C@H](c4ccc5c(c4C)COC5=O)C3)nc2)ncc1C#N [Example 183-I, (R)-4-methyl-6-(2-((3-(4-methyl-1-oxo-1,3-dihydroisobenzofuran-5-yl)piperazin-1-yl)methyl)pyrimidin-5-yl)nicotinonitrile] | 180
8 | Cc1c([C@@H]2CN(Cc3ccc(-n4cnc(C(F)F)c4)nc3)CCN2)ccc2c1COC2=O [Example 235-I, (R)-5-(4-((6-(4 (difluoromethyl)-1H-imidazol-1-yl)pyridin-3-yl)methyl)piperazin-2-yl)-4-methylisobenzofuran-1(3H)-one] | 83
9 | Cc1cc(-c2ncc(CN3C[C@@H](c4ccc5c(c4C)COC5=O)N[C@@H](C)C3)s2)ncc1C#N [Example 113-I, 4,4-methyl-6-(5-(((3S,5R)-3-methyl-5-(4-methyl-1-oxo-1,3-dihydroisobenzofuran-5-yl)piperazin-1-yl)methyl)thiazol-2-yl)nicotinonitrile] | 25
10 | Cc1cc(-c2nnc(CN3CC(c4ccc5c(c4C)COC5=O)NC(C(F)F)C3)o2)ncc1C#N (single isomer, unassigned) [Example 273-I, 6-(5-((3-(difluoromethyl)-5-(4-methyl-1-oxo-1,3-dihydroisobenzofuran-5-yl)piperazin-1-yl)methyl)-1,3,4-oxadiazol-2-yl)-4-methylnicotinonitrile] | 720
11 | Cc1c([C@@H]2CN(Cc3cnc(-n4c(C)nnc4C)nc3)CCN2)ccc2c1COC2=O [Example 201-I, (R)-5-(4-((2-(3,5-dimethyl-4H-1,2,4-triazol-4-yl)pyrimidn-5-yl)methyl)piperazin-2-yl)-4-methylisobenzofuran-1(3H)-one] | 190
12 | Cc1c([C@@H]2CN(Cc3cn(-c4ccc5oc(=O)n(C)c5c4)cn3)CCO2)ccc2c1COC2=O [Example 29-I, (R)-3-methyl-5-(4-((2-(4-methyl-1-oxo-1,3-dihydroisobenzofuran-5-yl)morpholino)methyl)-1H-imidazol-1-yl) benzo[d]oxazol-2(3H)-one] | 120
13 | Cc1c([C@@H]2CN(Cc3cn(-c4ccc5c(c4)OC(F)(F)O5)cn3)C[C@H](C)N2)ccc2c1COC2=O [Example 182-I, 5-((2R,6S)-4-((1-(2,2-difluorobenzo[d][1,3]dioxol-5-yl)-1H-imidazol-4-yl)methyl)-6-methylpiperazin-2-yl)-4-methylisobenzofuran-1(3H)-one] | 260
14 | Cc1c([C@@H]2CN(Cc3nnc(-c4ccc(C#N)cn4)o3)CCN2)ccc2c1COC2=O [Example 62-I, (R)-6-(5-((3-(4-methyl-1-oxo-1,3-dihydroiso-benzofuran-5-yl)piper-azin-1-yl)methyl)-1,3,4-oxadiazol-2-yl) nicotinonitrile] | 170
15 | COc1cc(-c2ccc(CN3CC(=O)N[C@H](c4ccc5c(c4C)COC5=O)C3)cn2)ncc1C#N [Example 74-I, (R)-4-methoxy-5′-((3-(4-methyl-1-oxo-1,3-di-hydroisobenzofuran-5-yl)-5-oxopiperazin-1-yl)methyl)-[2,2′-bi-pyridine]-5-carbonitrile] | 570
16 | Cc1ncn(-c2ccc(CN3CC(=O)N[C@H](c4ccc5c(c4C)COC5=O)C3)cn2)n1 [Example 75-I, (R)-6-(4-methyl-1-oxo-1,3-dihydroisobenzo-furan-5-yl)-4-((6-(3-methyl-1H-1,2,4-triazol-1-yl)pyridin-3-yl)methyl) piperazin-2-one] | 680
17 | COc1cc(-n2cc(CN3CCN[C@H](c4ccc5c(c4C)COC5=O)C3)c(C(N)=O)n2)ncc1C#N [Example 262-I, (R)-1-(5-cyano-4-methoxypyridin-2-yl)-4-((3-(4-methyl-1-oxo-1,3-dihydroisobenzofuran-5-yl)piperazin-1-yl)methyl)-1H-pyrazole-3-carboxamide] | 120
18 | COc1cc(-n2cc(CN3C[C@@H](c4ccc5c(c4C)COC5=O)N[C@@H](C)C3)n(C(C)C)c2=O)ncc1C#N [Example 172-I, 6-(3-isopropyl-4-(((3S,5R)-3-methyl-5-(4-methyl-1-oxo-1,3-dihydroisobenzofuran-5-yl)piperazin-1-yl)methyl)-2-oxo-2,3-dihydro-1H-imidazol-1-yl)-4-methoxynicotinonitrile] | 160
19 | Cc1cncc(-n2cc(CN3CCO[C@H](c4ccc5c(c4C)COC5=O)C3)cn2)n1 [Example 41-I, (R)-4-methyl-5-(4-((1-(6-methylpyrazin-2-yl)-1H-pyrazol-4-yl)methyl)morpholin-2-yl) isobenzofuran-1(3H)-one] | 980
20 | Cc1c([C@@H]2CN(Cc3cnn(-c4ccn5nccc5n4)c3)CCO2)ccc2c1COC2=O [Example 50-I, (R)-4-methyl-5-(4-((1-(pyrazolo[1,5-a]pyrimidin-5-yl)-1H-pyrazol-4-yl)methyl)morpholin-2-yl)isobenzofuran-1(3H)-one] | 670
21 | Cc1c([C@@H]2CN(Cc3cnn(-c4ccc5oc(=O)n(C)c5c4)c3)C(=O)O2)ccc2c1COC2=O [Example 80-I, (R)-3-methyl-5-(4-((5-(4-methyl-1-oxo-1,3-dihydroisobenzofuran-5-yl)-2-oxooxazolidin-3-yl)methyl)-1H-pyrazol-1-yl)benzo[d]oxazol-2(3H)-one] | 490
22 | Cc1cnccc1-n1cnc(CN2C[C@@H](c3ccc4c(c3C)COC4=O)N[C@@H](C)C2)c1 [Example 179-I, 4-methyl-5-((2R,6S)-6-methyl-4-((1-(3-methylpyridin-4-yl)-1H-imidazol-4-yl)methyl)piperazin-2-yl)isobenzofuran-1(3H)-one] | 360
23 | Cc1c([C@@H]2CN(Cc3ccc(-c4ccnc(N5CCOC5=O)c4)nc3)C[C@H](C)N2)ccc2c1COC2=O [Example 174-I, 3-(5-(((3S,5R)-3-methyl-5-(4-methyl-1-oxo-1,3-dihydroisobenzofuran-5-yl)piperazin-1-yl)methyl)-[2,4′-bipyridin]-2′-yl)oxazolidin-2-one] | 220
24 | Cc1cc(-n2cc(CCN3CCO[C@H](c4ccc5c(c4C)COC5=O)C3)cn2)ncc1C#N [Example 31-I, (R)-4-methyl-6-(4-(2-(2-(4-methyl-1-oxo-1,3-dihydroisobenzofuran-5-yl)morpholino)ethyl)-1H-pyrazol-1-yl) nicotinonitrile] | 190

The compounds below were run against hERG channels (Homo sapiens (Human), UniProt Q12809) (assay: hERG Manual Patch Clamp Assay). Details: human, HEK 293 cells stably expressing hERG channels, pH 7.4, 1 uM, read-out: hERG EP % Inh @ 1 uM.
Assay type: cell-based

Sequence of hERG channels (Q12809 whole entry): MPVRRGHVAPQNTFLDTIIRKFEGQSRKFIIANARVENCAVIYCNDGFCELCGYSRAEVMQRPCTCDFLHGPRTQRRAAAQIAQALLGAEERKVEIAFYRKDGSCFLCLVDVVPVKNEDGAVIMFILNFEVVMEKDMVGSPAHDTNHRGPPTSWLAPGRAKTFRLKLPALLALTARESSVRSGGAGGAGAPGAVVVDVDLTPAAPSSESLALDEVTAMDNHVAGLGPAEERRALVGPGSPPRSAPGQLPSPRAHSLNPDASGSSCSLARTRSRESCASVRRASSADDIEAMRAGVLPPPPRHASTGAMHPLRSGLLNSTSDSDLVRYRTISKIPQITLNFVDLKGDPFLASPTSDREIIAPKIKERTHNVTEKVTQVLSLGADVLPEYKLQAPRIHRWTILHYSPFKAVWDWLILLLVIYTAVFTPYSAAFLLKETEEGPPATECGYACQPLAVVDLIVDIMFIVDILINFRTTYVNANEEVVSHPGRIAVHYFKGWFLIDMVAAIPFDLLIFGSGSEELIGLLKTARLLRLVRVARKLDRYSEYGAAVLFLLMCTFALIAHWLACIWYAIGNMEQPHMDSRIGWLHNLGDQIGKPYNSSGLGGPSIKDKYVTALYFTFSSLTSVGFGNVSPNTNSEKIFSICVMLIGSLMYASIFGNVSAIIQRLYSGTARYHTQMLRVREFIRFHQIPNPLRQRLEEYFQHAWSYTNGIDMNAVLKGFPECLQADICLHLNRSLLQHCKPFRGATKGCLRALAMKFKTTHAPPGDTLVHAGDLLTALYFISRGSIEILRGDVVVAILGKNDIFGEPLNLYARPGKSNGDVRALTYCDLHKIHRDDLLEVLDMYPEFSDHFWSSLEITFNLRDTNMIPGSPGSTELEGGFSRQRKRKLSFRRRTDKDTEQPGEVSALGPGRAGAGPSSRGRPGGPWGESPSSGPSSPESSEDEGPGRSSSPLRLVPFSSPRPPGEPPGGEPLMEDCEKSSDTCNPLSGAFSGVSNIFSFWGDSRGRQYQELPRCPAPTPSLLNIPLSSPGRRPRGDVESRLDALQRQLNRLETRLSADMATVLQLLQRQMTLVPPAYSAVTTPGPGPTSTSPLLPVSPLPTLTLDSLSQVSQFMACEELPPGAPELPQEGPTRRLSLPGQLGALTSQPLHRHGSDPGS

Row | SMILES | inhibition at 1 µM [%]
25 | COc1cc(-n2cc(CN3CC(CO)NC(c4ccc5c(c4C)COC5=O)C3)cn2)ncc1C#N (single isomer, unassigned) [Example 89-III] | 14
26 | Cc1cc(-n2cnc(CN3C[C@@H](c4ccc5c(c4C)COC5=O)N[C@@H](C)C3)c2)ncc1C#N [Example 98-I, 4-methyl-6-(4-(((3S,5R)-3-methyl-5-(4-methyl-1-oxo-1,3-dihydroisobenzofur-an-5-yl)piperazin-1-yl)methyl)-1H-imidazol-1-yl)nicotinonitrile] | 9.3
27 | Cc1c([C@@H]2CN(Cc3cn(-c4ccnc(C(F)F)c4)c(=O)n3C)C[C@H](C)N2)ccc2c1COC2=O [Example 276-I, 1-(2-(difluoromethyl)pyridin-4-yl)-3-methyl-4-(((3S,5R)-3-methyl-5-(4-methyl-1-oxo-1,3-dihydroisobenzofuran-5-yl)piperazin-1-yl)methyl)-1,3-dihydro-2H-imidazol-2-one] | 5.4
28 | Cc1cc(-n2cc(CN3CC(c4ccc5c(c4C)COC5=O)OC(C)(C)C3)cn2)ncc1C#N (single isomer, unassigned) [Example 256-II, 6-(4-((2,2-dimethyl-6-(4-methyl-1-oxo-1,3-dihydroisobenzofuran-5-yl)morpholino)methyl)-1H-pyrazol-1-yl)-4-methylnicotinonitrile] | 13
29 | Cc1c([C@@H]2CN(Cc3cnc(-n4cnc(C(F)(F)F)c4)nc3)CCN2)ccc2c1COC2=O [Example 236-I, (R)-4-methyl-5-(4-((2-(4-(triflouromethyl)-1H-imidazol-1-yl)pyrimidin-5-yl)methyl)piperazin-2-yl)isobenzofuran-1(3H)-one] | 20
